Results as given in patent US10428080B2, “TBK/IKK inhibitor compounds and uses thereof” (Merck Patent GmbH, priority 2015, dated 2019).
pIC50: −log10 of the molar value. Where a name gives a salt, the structure may show the parent alone.

Target: T1, TBK1 (Homo sapiens, UniProt Q9UHD2)
T1 sequence (Q9UHD2 1-729): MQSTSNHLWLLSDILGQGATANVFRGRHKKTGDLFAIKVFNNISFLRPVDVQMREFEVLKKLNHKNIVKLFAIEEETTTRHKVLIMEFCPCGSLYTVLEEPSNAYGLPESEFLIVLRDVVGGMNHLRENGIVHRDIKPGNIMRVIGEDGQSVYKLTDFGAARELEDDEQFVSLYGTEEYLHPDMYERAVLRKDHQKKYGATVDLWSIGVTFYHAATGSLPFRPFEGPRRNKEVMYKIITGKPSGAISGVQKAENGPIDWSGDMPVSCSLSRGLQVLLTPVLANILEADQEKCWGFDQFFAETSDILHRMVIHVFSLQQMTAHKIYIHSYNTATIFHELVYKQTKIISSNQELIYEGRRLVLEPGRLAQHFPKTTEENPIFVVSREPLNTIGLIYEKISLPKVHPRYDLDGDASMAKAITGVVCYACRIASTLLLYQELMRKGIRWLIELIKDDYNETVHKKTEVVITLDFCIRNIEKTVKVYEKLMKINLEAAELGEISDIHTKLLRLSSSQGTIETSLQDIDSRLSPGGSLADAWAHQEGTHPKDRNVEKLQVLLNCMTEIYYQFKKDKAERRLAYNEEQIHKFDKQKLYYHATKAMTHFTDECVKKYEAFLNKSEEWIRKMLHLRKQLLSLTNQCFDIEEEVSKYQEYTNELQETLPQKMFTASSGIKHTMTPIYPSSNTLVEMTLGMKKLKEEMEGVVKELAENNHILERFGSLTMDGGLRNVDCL
Assay: TBK Biochemical Assay
Details: read-out: TBK1 IC50
Method: Example 482: TBK Biochemical Assay
Test compounds were transferred into Labcyte polypropylene 384 well plates (P055-25) and diluted to 3 mM using DMSO. 3 mM test compounds were dispensed using Labcyte ECHO dose response module into Greiner 784075 plates (columns 3-12 and 13-22, 10 point 1:4) so that high concentration was 30 uM final. 100 uM of a reference compound (1 uM final high concentration). Backfilling was performed if necessary so that all wells contain 1% DMSO final: […]
add 75 nl DMSO/well into columns 1, 2 and 24 using Labcyte Echo. add 75 nl 1.0 mM staurosporine/well into column 23 using Labcyte Echo ([…]) add 4.5 ul enzyme/well using multidrop dispenser add 3 ul substrate/well using multidrop dispenser incubate at 25° C. in Heidolph incubator for 90 min. add 7.5 ul 2× stop buffer using multidrop dispenser read on labchip ez reader II using TBK1.job
Raw data files were opened in the Caliper LabChip Reviewer program (Version 3.0.265.0 SP2) and peak assignments were adjusted to reflect “substrate first” with the software's post-run analysis options. A spline-fit baseline was applied using the software's analysis algorithm.

SMILES | pIC50
CN(C)C(=O)c1ccc(-c2cc3nccc(-c4cc(F)c(OC5CCOC6(CC6)C5)c(C#N)c4)c3o2)cc1 (stereo not drawn) [Compound 288, 4-[7-(3-cyano-5-fluoro-4-[4-oxaspiro[2.5]octan-7-yloxy]phenyl)furo[3,2-b]pyridin-2-yl]-N,N-dimethylbenzamide hydrochloride] | < 5.30
CC1COCC(C)C1Oc1c(F)cc(-c2ccnc3cc(-c4ccc(C(=O)N(C)C)cc4)oc23)cc1C#N (stereo not drawn) [Compound 289, 4-(7-[3-cyano-4-[(3,5-dimethyloxan-4-yl)oxy]-5-fluorophenyl]furo[3,2-b]pyridin-2-yl)-N,N-dimethylbenzamide] | < 5.30
COc1cc(C(=O)N(C)C)ccc1-c1cc2nccc(-c3cc(F)c(OC4CCOC5(CC5)C4)c(C#N)c3)c2o1 (stereo not drawn) [Compound 293, 4-[7-(3-cyano-5-fluoro-4-[4-oxaspiro[2.5]octan-7-yloxy]phenyl)furo[3,2-b]pyridin-2-yl]-3-methoxy-N,N-dimethylbenzamide] | < 5.30
COc1cc(C(=O)N(C)C)ccc1-c1cc2nccc(-c3cc(F)c(OC4C(C)COCC4C)c(C#N)c3)c2o1 (stereo not drawn) [Compound 294, 4-(7-[3-cyano-4-[(3,5-dimethyloxan-4-yl)oxy]-5-fluorophenyl]furo[3,2-b]pyridin-2-yl)-3-methoxy-N,N-dimethylbenzamide] | < 5.30
CN(C)C(=O)c1ccc(-c2cc3ncc(C4CC4)c(-c4ccc(NC5CCOCC5)c(C#N)c4)c3o2)c(F)c1 [Compound 309, 4-(7-[3-cyano-4-[(oxan-4-yl)amino]phenyl]-6-cyclopropylfuro[3,2-b]pyridin-2-yl)-3-fluoro-N,N-dimethylbenzamide] | < 5.30
CN(C)C(=O)c1ccc(-c2cc3ncc(C4CC4)c(-c4ccc(OC5CCOCC5)c(C#N)c4)c3o2)c(F)c1 [Compound 310, 4-[7-[3-cyano-4-(oxan-4-yloxy)phenyl]-6-cyclopropylfuro[3,2-b]pyridin-2-yl]-3-fluoro-N,N-dimethylbenzamide] | < 5.30
CN(CCO)C(=O)c1ccc(-c2cc3ncc(C4CC4)c(-c4ccc(NC5CCOCC5)c(C#N)c4)c3o2)c(F)c1 [Compound 311, 4-(7-(3-cyano-4-(tetrahydro-2H-pyran-4-ylamino)phenyl)-6-cyclopropylfuro[3,2-b]pyridin-2-yl)-3-fluoro-N-(2-hydroxyethyl)-N-methylbenzamide] | < 5.30
CN(CCO)C(=O)c1ccc(-c2cc3ncc(C4CC4)c(-c4ccc(OC5CCOCC5)c(C#N)c4)c3o2)c(F)c1 [Compound 312, 4-(7-(3-cyano-4-(tetrahydro-2H-pyran-4-yloxy)phenyl)-6-cyclopropylfuro[3,2-b]pyridin-2-yl)-3-fluoro-N-(2-hydroxyethyl)-N-methylbenzamide] | < 5.30
COc1cc(C(=O)N(C)C)cnc1-c1cc2ncc(C(C)C)c(-c3ccc(OC4CCOCC4)c(C#N)n3)c2o1 [Compound 331, 6-[7-[6-cyano-5-(oxan-4-yloxy)pyridin-2-yl]-6-(propan-2-yl)furo[3,2-b]pyridin-2-yl]-5-methoxy-N,N-dimethylpyridine-3-carboxamide hydrochloride] | < 5.30
COc1cc(C(=O)N(C)C)cnc1-c1cc2ncc(C(C)C)c(-c3ccc(OC4CCOCC4)c(C#N)c3)c2o1 [Compound 332, 6-[7-[3-cyano-4-(oxan-4-yloxy)phenyl]-6-(propan-2-yl)furo[3,2-b]pyridin-2-yl]-5-methoxy-N,N-dimethylpyridine-3-carboxamide] | < 5.30
COc1cc(C(=O)N(C)C)cnc1-c1cc2ncc(C(C)C)c(-c3ccc(NC4CCOCC4)c(C#N)c3)c2o1 [Compound 335, 6-(7-[3-cyano-4-[(oxan-4-yl)amino]phenyl]-6-(propan-2-yl)furo[3,2-b]pyridin-2-yl)-5-methoxy-N,N-dimethylpyridine-3-carboxamide hydrochloride] | < 5.30
COc1cc(C(=O)N(C)C)cnc1-c1cc2ncc(Cl)c(-c3ccc(NC4CCOCC4)c(C#N)c3)c2o1 [Compound 337, 6-(6-chloro-7-[3-cyano-4-[(oxan-4-yl)amino]phenyl]furo[3,2-b]pyridin-2-yl)-5-methoxy-N,N-dimethylpyridine-3-carboxamide] | < 5.30
